From PMC8880564, “Design, Synthesis, and Biological Evaluation of a Novel VEGFR-2 Inhibitor Based on a 1,2,5-Oxadiazole-2-Oxide Scaffold with MAPK Signaling Pathway Inhibition” (Pharmaceuticals, 2022)
“And” between values parts separate entries of the source, which are not always exact repeats. Equal entries are not always repeated.

Key:
[1] = tested on: normal human skin fibroblast cells (HSF); experiment: Selectivity towards cancer cells, normal cells by MTT; assay type: cell-based; settings: at a concentration as high as 50 µM, 48 h
Protocol: Furthermore, the selectivity index (SI) of compound 12b towards the various cancer cell lines was evaluated by detecting the required concentration to kill 50% of normal human skin fibroblast cells (HSF).
According to the procedures of Bézivin et al. (with minor modifications), the selectivity of compound 12b against cancer cell lines was evaluated by seeding human skin fibroblast cells (HSF) at 5 × 10^4 cells/mL in a 96-well plate and incubating them overnight at 37 °C and 5% CO2. On the second day, serial dilution of the compound 12b was added. After 48 h of incubation, the viability of HSF cells was determined by MTT assay as mentioned above and the selectivity index (SI) was calculated according to Equation (1):
Equation (1) Calculation of selectivity index. (1) SI=IC50 normal cells/IC50 cancer cell

HepG2 cells [2] = experiment: Intracellular measurement of NO by DAF-FM diacetate flow cytometry; assay type: cell-based, human; settings: HepG2, 11 µM, 1 h, DAF-FM DA; DMSO 0.1%
Protocol: The NO-releasing properties of 12b were evaluated by measuring the level of intracellular NO by flow cytometry, using a cell-permeable and photo-stable NO fluorescent indicator, 3-Amino-4-aminomethyl-2’,7’-difluorofluorescein diacetate (DAF-FM DA), with a detection limit of ~3 nM. DAF-FM diacetate penetrates the cells and is deacetylated by esterase enzyme to yield a non-fluorescent dye, DAF-FM, which, upon reaction with NO, produces a fluorescent benzotriazole product. Compound 12b was efficiently able to increase the production of NO in the treated cells (9.9% vs. 0.1% in DMSO-treated cells; Figure 9). Furthermore, compound 12b increased NO production as efficiently as the positive control reference drug JS-k.
HepG2 cells were collected, and the number was adjusted at 10^6 cells/test, and then they were stained with 5 µM DAF-FM™ diacetate (Invitrogen, Cat. No. D-23844) for 60 min at 37 °C and 5% CO2. After that, the stained cells were washed to remove the excess probe, and then were re-incubated for another 30 min. Following that, the stained cells were treated either with 12b (5.5 or 11 µM) or JS-K as a positive nitric oxide donor or DMSO as a negative control for another 1 h. The fluorescence was detected by flow cytometry using the FITC detection system in a BD flow Cytometer.

HepG2 cells [3] = experiment: Wound-healing assay; assay type: cell-based, human; settings: HepG2, serum-free media, 24 h, vs DMSO-treated cells
Protocol: A wound-healing assay is a simple and economical assay used to investigate the anti-metastatic activity of compounds. Cells were treated with compound 12b in serum-free media for 24 h. After that, the cells were fixed with ice-cold methanol and air-dried, then stained with 0.5% crystal violet.

BCL-2 = experiment: Quantitative RT-PCR for gene expression in HepG2 cells; assay type: cell-based, human; settings: HepG2, 12 h
Excerpt: (§1) Epithelial cells express specific genes involved in maintaining apical–basal polarity and adherence, such as epithelial E-cadherin. The epithelial cells migrate to distant locations by over-expressing mesenchymal genes, including neuronal N-cadherin and vimentin [58]. Cancer aggressiveness has been positively correlated with the over-expression of N-cadherin. Therefore, in this study, the partial mechanism of activity of 12b was investigated, by quantitative RT-PCR, with respect to E-cadherin and N-cadherin. […] Additionally, the ability of 12b was confirmed by detecting the change in expression of both pro-apoptotic (Bax) and anti-apoptotic (BCL-2) genes. Compound 12b-treated HepG2 cells (for 12 h) expressed a low level of BCL-2 and over-expressed Bax (Figure 11A).
(§2) HepG2 cells were treated either with DMSO, 5.5 or 11 µM of 12b for 12 h, and then the total RNA was extracted by TRIzol™ Reagent (Invitrogen, Cat. No. 15596018). The RNA concentration and purity were evaluated using a Thermo Scientific™ NanoDrop™ One Microvolume UV-Vis Spectrophotometer. Four µg RNA was reverse transcribed to cDNA using the RevertAid First Strand cDNA Synthesis kit. The level of N-cadherin, E-cadherin, BCL-2, Bax, and GAPDH was detected using the SensiFAST™ SYBR® High-ROX Kit with the StepOne™ Real-Time PCR System (Applied Biosystems™). The expression level was firstly normalized to the level of GAPDH, then calculated as 2^−(ΔΔCt), where ΔCt 12b = (Ct […] Ct GAPDH); ΔCt DMSO = (Ct DMSO ™ Ct GAPDH); ΔΔCt = (ΔCt 12b ™ ΔCt DMSO). Ct is the cycle threshold.

Bax = experiment: as above; assay type: cell-based, human; settings: HepG2, 12 h
Excerpt: as §1, §2

E-cadherin = experiment: as above; assay type: cell-based, human; settings: HepG2, 5.5 or 11 µM, 12 h
Excerpt: as §1, §2

N-cadherin = experiment: as above; assay type: cell-based, human; settings: HepG2, 5.5 or 11 µM, 12 h
Excerpt: as §1, §2

MMP-9 = experiment: Western blot analysis in HepG2 cells; assay type: cell-based, human; settings: HepG2, 48 h
Protocol: (§3) The mitogen-activated protein kinase (MAPK) pathway is considered to be a key player in the gene expression of survival, proliferative, and anti-apoptotic proteins. Aberrant dysregulation in the MAPK pathway activity has been linked to the overall poor prognosis in various cancers. […] Additionally, compound 12b was further tested against p38, MKK3, and JNK using ELISA assay protocols at a concentration of 11 µM. […] The overexpression of JNK might have contributed to the NO released from 12b and reactive oxygen species (ROS). In summary, the novel anticancer lead compound 12b is worthy of further investigation and activity improvement.
(§4) The cells were seeded (2.5 × 10^5 cells/mL) and treated as described above. After 48 h of incubation with compound 12b, cells were lysed by RIPA buffer containing 1x protease and phosphatase inhibitor cocktail (Thermo Scientific™, Waltham, MA, USA). The supernatant was collected after centrifugation at 4 °C and the Pierce BCA Protein Assay Kit (Thermo Scientific™, 23225, Waltham, MA, USA) was used for protein concentration detection. Proteins were then separated using SDS-PAGE at 100 V for 45 min. After that, the proteins were transferred to a nitrocellulose membrane. The membrane was subjected to a suitable primary antibody overnight. Then, an appropriate HRP-conjugated secondary antibody was used. GAPDH was used as a loading control. The membrane was developed using WesternBright® ECL (Advansta Inc., K-12045-D20, San Jose, CA, USA), and the signal was detected using ChemiDoc XRS^+ (1708265, Bio-Rad Laboratories, Hercules, CA, USA).

p27 = experiment: Western blot analysis in HepG2 cells; assay type: cell-based, human; settings: HepG2, 48 h
Protocol: as §3, §4

p53 = experiment: Western blot analysis in HepG2 cells; assay type: cell-based, human; settings: HepG2, 48 h
Protocol: as §3, §4

total ERK = experiment: Western blot analysis in HepG2 cells; assay type: cell-based, human; settings: HepG2, 48 h
Protocol: as §3, §4

VEGFR-2 = VEGFR-2 (Homo sapiens, UniProt P35968); experiment: VEGFRx kinase assay (BPS Bioscience kit); settings: VEGFR-2 inhibitory activity IC50, duplicate, luminescence kinase kit
VEGFR-2, sequence (P35968 789-1356 limits assumed): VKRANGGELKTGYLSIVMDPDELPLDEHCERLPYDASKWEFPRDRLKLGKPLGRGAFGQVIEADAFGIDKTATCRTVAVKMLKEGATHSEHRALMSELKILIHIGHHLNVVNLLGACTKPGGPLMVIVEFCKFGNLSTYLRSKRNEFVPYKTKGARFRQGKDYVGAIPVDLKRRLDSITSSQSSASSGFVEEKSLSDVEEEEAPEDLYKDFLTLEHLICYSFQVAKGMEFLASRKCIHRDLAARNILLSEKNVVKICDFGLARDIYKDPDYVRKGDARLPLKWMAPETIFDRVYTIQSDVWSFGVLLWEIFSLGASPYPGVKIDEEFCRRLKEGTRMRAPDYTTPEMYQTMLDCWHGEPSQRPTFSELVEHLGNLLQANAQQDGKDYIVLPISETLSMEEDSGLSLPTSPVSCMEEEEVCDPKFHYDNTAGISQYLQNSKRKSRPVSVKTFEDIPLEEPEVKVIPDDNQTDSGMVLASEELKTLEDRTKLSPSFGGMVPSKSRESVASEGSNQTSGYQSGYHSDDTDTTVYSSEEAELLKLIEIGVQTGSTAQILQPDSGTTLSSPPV
Protocol: The kinase assay was performed according to BPS Bioscience® kinase assay kit protocols [17, 74, 75, 76, 77]. […] The master mixture (25 μL) was added to every well then inhibitor solution of each well, labeled as “Test Inhibitor”, was added. For the “Positive Control” and “Blank”, the same solution without inhibitor (Inhibitor buffer) was added. To the wells designated as “Blank”, 1x Kinase Buffer 1 was added. FLT1/VEGFR2/FLT3 enzyme was thawed on ice and diluted with 1x Kinase Buffer 1 then added to the wells designated “Positive Control” and “Test Inhibitor Control”. The plate was incubated at 30 °C for 45 min then ADP-Glo reagent/Kinase-Glo Max reagent was added to each well. The plate was covered with aluminum foil and incubated at room temperature for 15 min. The luminescence was measured using the microplate reader. In case of FLT1 and FLT3, the plate was incubated for 45 min, then Kinase Detection reagent was added to each well and the plate was covered with aluminum foil and incubated at room temperature for another 45 min. The luminescence was measured immediately using the Tecan–spark® reader. A “Blank” value was subtracted from all readings.

With `[O-][n+]1onc(-c2ccccc2)c1CNc1ccc(Nc2nc(C(F)(F)F)nc3c2cnn3-c2ccc(Br)cc2)cc1` [12b, 3-(((4-((1-(4-bromophenyl)-6-(trifluoromethyl)-1H-pyrazolo[3,4-d]pyrimidin-4-yl)amino)phenyl)amino)methyl)-4-phenyl-1,2,5-oxadiazole 2-oxide] the “morphological changes in HSF cells” value [1] was “did not cause any morphological changes”, the “intracellular NO production (P2)” value (HepG2 cells [2]) was 9.9% and the “rate of wound healing” value (HepG2 cells [3]) was “decreased the rate of wound healing”. For the same compound, the “expression of BCL-2” value (BCL-2) was “low level”, the “expression of Bax” value (Bax) was “over-expressed” and the “expression of epithelial E-cadherin” value (E-cadherin) was “increased expression”. The “expression of neuronal N-cadherin” value (N-cadherin) was “lower expression”, the “expression of metalloproteinase MMP-9” value (MMP-9) was “downregulation” and the “expression of p27” value (p27) was “over-expression”. The “expression of p53” value (p53) was “slight increase in the expression”, the “level of total ERK” value (total ERK) was “decreased the level” and the IC50 (VEGFR-2) was 92 nM and 90 nM.
